The results in this text go back to patent US7772263B2, “Compounds for the treatment of inflammatory disorders” (Schering Corporation, priority 2006, dated 2010).

A value given as a limit tells only on which side of the number the result lay.

For this test, the target named is T1, purified catalytic domain of recombinant human TACE (rhTACEc) (Homo sapiens, UniProt P78536, N452Q/S266A).
T1 construct: rhTACEc, Residue 215 to 477 with two mutation (S266A and N4520) and a 6×His tail; 6xHis (C); made in house; host or cells: baculovirus/Hi5 insect cells
T1 sequence (P78536 215-477 S266A/N452Q limits assumed): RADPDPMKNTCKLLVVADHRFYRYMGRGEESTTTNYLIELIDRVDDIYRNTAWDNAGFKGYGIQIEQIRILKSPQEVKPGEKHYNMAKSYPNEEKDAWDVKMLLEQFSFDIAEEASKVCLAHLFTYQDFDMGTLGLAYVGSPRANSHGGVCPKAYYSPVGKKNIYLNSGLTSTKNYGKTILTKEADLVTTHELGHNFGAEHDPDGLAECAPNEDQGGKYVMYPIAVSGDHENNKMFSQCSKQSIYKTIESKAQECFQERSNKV
Put plainly: TACE kinetic assay, cleavage of internally quenched fluorescent peptide substrate SPDL-3. Type of test: biochemical. To be noted: TACE; class letters A-D; read-out: Ki Rating.
As for `COc1ccc2c(c1)C(=O)N(C[C@@]1(C#Cc3cnc(Cl)nc3N)NC(=O)NC1=O)C2` [Compound 1573], the inhibition constant Ki (in general, a measure of affinity in units of concentration, obtained from inhibition or displacement) is less than 5 nM.

As for `COc1ccc2c(c1)C(=O)N(C[C@@]1(C#Cc3ccc(OC4SC(=O)NC4=O)cc3)NC(=O)NC1=O)C2` (some centres unmarked) [Compound 1574], the inhibition constant Ki is less than 5 nM.

With `COc1ccc2c(c1)C(=O)N(C[C@@]1(C#Cc3ccc(C(C)=NO)nc3)NC(=O)NC1=O)C2` [Compound 1575], the Ki was less than 5 nM.

For `COc1ccc2c(c1)C(=O)N(C[C@@]1(C#Cc3ccc4c(c3)CCC43NC(=O)NC3=O)NC(=O)NC1=O)C2` (some centres unmarked) [Compound 1576], the Ki is less than 5 nM.

As to `COc1ccc2c(c1)C(=O)N(C[C@@]1(C#Cc3ccc(C4(C5CC5)NC(=O)NC4=O)cc3)NC(=O)NC1=O)C2` (some centres unmarked) [Compound 1577], the Ki was less than 5 nM.

On to `COc1ccc2c(c1)C(=O)N(C[C@@]1(C#Cc3ccc(C)[nH]c3=O)NC(=O)NC1=O)C2` [Compound 1578], for which the Ki is less than 5 nM.

Turning to `COc1ccc2c(c1)C(=O)N(C[C@@]1(C#Cc3cnccc3OC)NC(=O)NC1=O)C2` [Compound 1579], the Ki was less than 5 nM.

For `COc1ccc2c(c1)C(=O)N(C[C@@]1(C#Cc3cccc(C4(C)NC(=O)NC4=O)c3)NC(=O)NC1=O)C2` (some centres unmarked) [Compound 1580], the Ki is less than 5 nM.
